In patent publication US6815426B2, “Angiogenesis-inhibitory tripeptides, compositions and their methods of use” (E. I. du Pont de Nemours and Company, priority 2001, dated 2004):
“Also recorded” adds a separate entry of the source. Where a SMILES comes first, the peptide text is derived from it. Where no end group is shown, it is not given here. [ ]: non-standard residue; d: D form. ξ: configuration not given here. ξHyp = O=C(O)C1CC(O)CN1

Legend:
[1] = system: Human umbilical vein endothelial cells (HUVEC); experiment: FGF2-stimulated endothelial cell tube formation on Matrigel matrix; assay type: cell-based; details: for Inhibition of FGF2-stimulated EC tube formation, in words: in vitro, qualitative ranking; for Cell Tube Formation (area) / Cell Tube Formation (length): HUVEC on Matrigel, FGF2 100 ng/mL, peptide 0.015 μmol added with FGF2, overnight; for Cell Tube Formation (length): length/area; for % inhibition cell tube formation (area) / % inhibition cell tube formation (length): peptide 0.015 μmol, FGF2-stimulated HUVEC
Procedure: Differentiation by endothelial cells was examined using a method developed by Grant et al. (In Vitro Cell Dev. Biol. 27A:327-336 (1991)). Matrigel® matrix, phenol-red free (commercially available from Becton Dickinson, Bedford, Mass.) was thawed overnight at 4° C. Using cold pipette tips, 3.0 mg/well of Matrigel® matrix was placed in a cold twenty-four-multiwell plate (Falcon). Matrigel® matrix was allowed to polymerize during incubation at 37° C. for 30 min. Human umbilical vein endothelial cells (HUVEC) were maintained at 37° C. with 5% CO2 and 95% humidity in endothelial cell growth medium with 2% fetal bovine serum (EGM). Tube assay was performed in endothelial cell basal medium (EBM) supplemented with 0.5% bovine serum albumin (BSA) and 1:100 diluted Insulin-Transferrin-Selenium-G supplement (I-T-Se, 100×). HUVEC were trypsinized and centrifuged and subsequently, washed twice in phosphate buffered saline (PBS). After counting, cell density was adjusted to 35,000 cells/mL. At final concentration of 35,000 cells/mL/well were treated with recombinant human fibroblast growth factor basic (FGF2) at 100 ng/mL and peptides (see below) dissolved in EBM medium at to a concentration of 0.015 μmol. Treated cells were incubated overnight at 37° C. with 5% CO2 and 95% humidity to allow cell attachment. Subsequently, the medium was aspirated and cells were fixed and stained using a modified HEMA-3 stain kit. Digital images of microtiter well sections were collected using a DKC5000 3-CCD color video camera system (Toshiba America, New York, N.Y.) and analyzed with the Image-Pro Plus software (Media Cybernetics, Silver Spring, Md.). The area and major axis length of stained cells having a tubular morphology on the Matrigel® matrix surface (Becton Dickinson, Bedford, Pa.) counted from 5 images/well.

[2] = system: FGF2-induced angiogenesis in the chorioallantoic membrane (CAM); experiment: FGF2-induced neovascularization on the chick chorioallantoic membrane (CAM), branch point count; assay type: in vivo; details: for % Inhibition of branch point formation: 16 μg, FGF2-stimulated CAM; for Average # of Branch Points: FGF2 filter disk on CAM, peptide 16 μg topically, 48 h
Procedure: In vivo neovascularization was examined by the method previously described by Auerbach et al. (J. Dev. Biol. 41:391-394 (1974)). Ten-day old embryos were purchased from Spafas, Inc. (Preston, Conn.) and were incubated at 37° C. with 55% relative humidity. In the dark with the help of a candling lamp a small hole was punctured in the shell concealing the air sac with a hypodermic needle. A second hole was punctured in the shell on the broadside of the egg directly over an […] portion of the embryonic membrane, as observed during candling. A false air sac was created beneath the second hole by the application of negative pressure to the first hole, which caused the chorioallantoic membrane (CAM) to separate from the shell. A window, approximately 1.0 cm^2, was cut in the shell over the dropped CAM with the use of a small crafts grinding wheel (Dremel, Division of Emerson Electric Company Racine, WI) which allowed direct access to the underlying CAM. Filter disks of #1 filter paper (Whatman International, United Kingdom) were soaked in 3 mg/mL cortisone acetate (Sigma, St. Louis, Mo.) in a solution of 95% ethanol and water and subsequently air dried under sterile conditions. FGF2 (Life Technologies, Gaithersburg, Md.) was used to grow vessels on the CAMs of 10-d old chick embryos. Sterile filter disks adsorbed with FGF2 dissolved in PBS at 1 μg/mL were placed on growing CAMs. At 24 h, test compounds or control vehicle was added directly to CAMs topically.
CAM tissue directly beneath FGF2-saturated filter disk was resected from embryos treated 48 h prior with compound or control. Tissues were washed three times with PBS. Sections were placed in a 35-mm petri dish (Nalge Nunc, Rochester, N.Y.) and examined under a SV6 stereomicroscope (Karl Zeiss, Thornwood, N.Y.) at 50× magnification. Digital images of CAM sections adjacent to filters were collected using a 3-CCD color video camera system (Toshiba America, New York, N.Y.) and analyzed with the Image-Pro Plus software (Media Cybernetics, Silver Spring, Md.) and can be seen in FIG. 2. Table 3 contains the number of vessel branch points contained in a circular region equal to the area of a filter disk counted for each section. Percent inhibition data is expressed as the quotient of the experimental value minus the negative control value divided by the difference between the positive control value and the negative control value.

[3] = system: TSU-Pr (human prostrate) tumor; details: 45 μg, after 7 d
Procedure: Ten million tumor cells were placed on the surface of each CAM (7-d old embryo) and were cultured for one week. The resulting tumors were excised and cut into 50 mg fragments. […] Each treatment group incorporated at least ten tumors per experiment. Representative tumors were photographed at 10× magnification. Tumors were then excised from the egg and tumor weights were determined for each tumor. Data is presented as mean tumor weight per treatment group (±standard error of the mean). Statistical analysis was performed using Student's t-test.

human melanoma cells [4] = details: cited from earlier work
human melanoma cells [5] = details: cited from earlier work; remark: listed apart in the source

CC(=O)N[C@@H](CO)C(=O)N[C@@H](CC(N)=O)C(=O)N1CC(O)CC1C(N)=O (stereo partly drawn) [SN-t4Hyp] (Ac-Ser-Asn-[ξHyp]-NH2)
Inhibition of FGF2-stimulated EC tube formation, in words [1]: most potent | % Inhibition of Branch Points in FGF2-Induced CAM Assay ([2]; 1 μg/CAM): 39% +/− 11 | % Inhibition of Branch Points in FGF2-Induced CAM Assay ([2]; 5 μg/CAM): 60% +/− 7 | % Inhibition of Branch Points in FGF2-Induced CAM Assay ([2]; 15 μg/CAM): 71% +/− 8

CC(=O)N[C@@H](CO)C(=O)N[C@@H](CC(N)=O)C(=O)N[C@H](CO)C(N)=O [SNs] (Ac-Ser-Asn-[dS]-NH2)
Inhibition of FGF2-stimulated EC tube formation, in words [1]: most potent | % Inhibition of Branch Points in FGF2-Induced CAM Assay ([2]; 1 μg/CAM): 62% +/− 7 | % Inhibition of Branch Points in FGF2-Induced CAM Assay ([2]; 5 μg/CAM): 78% +/− 6 | % Inhibition of Branch Points in FGF2-Induced CAM Assay ([2]; 15 μg/CAM): 69% +/− 8

CC(=O)NC(CO)C(=O)NC(CC(N)=O)C(=O)NC(CO)C(N)=O (stereo not drawn) [acetyl-SNS-carboxamide, acetyl-Ser-Asn-Ser-carboxamide] (Ac-Ser-Asn-Ser-NH2; configuration not given here)
Cell Tube Formation (area) [1]: 1.1011 +/− 0.12 10^4 square microns | Inhibition of FGF2-stimulated EC tube formation, in words [1]: very potent inhibitor; also recorded: more potent inhibitor | Cell Tube Formation (length) [1]: 47.5267 +/− 4.31 mm/mm^2 | % inhibition cell tube formation (area) [1]: 97% +/− 8 | % inhibition cell tube formation (length) [1]: 84% +/− 9 | % Inhibition of branch point formation [2]: 100.23% | % Inhibition of branch point formation ([2]; listed as acetyl-Ser-Asn-Ser-carboxamide): 100% | Average # of Branch Points [2]: 91.60 | % ave inhibition of TSU-Pr tumor growth (weight) ([3]; injected into tumors): 111% | Tumors showing significant weight shrinkage ([3]; ten tumors injected): Six tumors out of the ten

CNYYSNSYSFWLASLNPER [SEQ ID NO:1, peptide of residues 185-203 of the NC1 domain of the α3-chain of collagen type IV]
Promotion of adhesion of human melanoma cells over controls (human melanoma cells [4]): 50-60% | Inhibition of proliferation of human melanoma cells (human melanoma cells [5]): 40%

FGF2: recombinant human fibroblast growth factor basic, angiogenic stimulus [reference compound]
Cell Tube Formation (area) [1]: 2.2501 +/− 0.28 10^4 square microns | Cell Tube Formation (length) [1]: 79.8272 +/− 8.66 mm/mm^2 | Average # of Branch Points [2]: 263.88

Ser-Gln-Ser [SQS]
Inhibition of FGF2-stimulated EC tube formation, in words [1]: most potent | % Inhibition of Branch Points in FGF2-Induced CAM Assay ([2]; 1 μg/CAM): 101% +/− 7 | % Inhibition of Branch Points in FGF2-Induced CAM Assay ([2]; 5 μg/CAM): 121% +/− 6 | % Inhibition of Branch Points in FGF2-Induced CAM Assay ([2]; 15 μg/CAM): 82% +/− 7

acetyl-Cys-Asn-Tyr-Tyr-Ser-Asn-Ser-Tyr-Ser-Phe-Trp-Leu (Ac-CNYYSNSYSFWL) [SEQ ID NO: 4, As defined in b173]
% inhibition cell tube formation (area) [1]: 71% +/− 6 | % inhibition cell tube formation (length) [1]: 54% +/− 3

acetyl-Ser-Asn-Ser-Tyr-Ser-Phe-Trp-Leu (Ac-SNSYSFWL) [SEQ ID NO: 3, As defined in b173]
% inhibition cell tube formation (area) [1]: 75% +/− 7 | % inhibition cell tube formation (length) [1]: 65% +/− 3
